Experimental data from patent US8952024B2, “Herbicidal pyrimidone derivatives” (E I du Pont de Nemours and Company, priority 2009, dated 2015).

What was measured:
Format in all cases: in vivo
corn (Zea mays) = experiment: Test A pre-/postemergence plant response
Method in brief: (§1)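 Visual injury rating on a 0–100 scale (0 = no effect, 100 = complete control) was made versus untreated controls after about ten days in the greenhouse. Compounds, formulated in a non-phytotoxic solvent mix containing surfactant, were sprayed preemergence onto loam/sand soil and postemergence onto one- to two-leaf plants.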

[1] = system: large crabgrass (Digitaria sanguinalis); experiment: Test A pre-/postemergence plant response
Method in brief: as §1

[2] = system: morningglory (Ipomoea spp.); experiment: Test A pre-/postemergence plant response; settings: approx. ten days; for Plant response rating, Morningglory: 500 g ai/ha
Method in brief: as §1

[3] = system: pigweed (Amaranthus retroflexus); experiment: Test A pre-/postemergence plant response
Method in brief: as §1

[4] = system: giant foxtail (Setaria faberii); experiment: Test A pre-/postemergence plant response
Method in brief: as §1

[5] = system: wheat (Triticum aestivum); experiment: Test A pre-/postemergence plant response
Method in brief: as §1

[6] = system: velvetleaf (Abutilon theophrasti); experiment: Test A pre-/postemergence plant response
Method in brief: as §1

[7] = system: barnyardgrass (Echinochloa crus-galli); experiment: Test A pre-/postemergence plant response
Method in brief: as §1

[8] = system: winter barley (Hordeum vulgare); experiment: Test B postemergence plant response
Method in brief: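 Visual ratings from 0 (no effect) to 100 (complete control), made against controls 13–15 days after treatment, kept in a greenhouse. Compounds were applied postemergence to potted plants at the 1- to 4-leaf stage (2–18 cm).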

[9] = system: ducksalad (Heteranthera limosa); experiment: Test B flooded paddy test; settings: for Plant response rating, Ducksalad: Flood (flooded paddy test), 13 to 15 days
Method in brief: (§2)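 Seedlings reaching 2 leaves are flooded 3 cm deep; test material is delivered to that water, which stays at the same depth. Plants remain in a greenhouse 13–15 days and are then scored by eye versus controls from 0 to 100.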

[10] = system: umbrella sedge (Cyperus difformis); experiment: Test B flooded paddy test; settings: for Plant response rating, Sedge, Umbrella: Flood (flooded paddy test), 13 to 15 days
Method in brief: as §2

rice (Oryza sativa) = experiment: Test B flooded paddy test; settings: for Plant response rating, Rice: Flood (flooded paddy test), 13 to 15 days
Method in brief: as §2

[11] = system: barnyardgrass (Echinochloa crus-galli); experiment: Test B flooded paddy test; settings: for Plant response rating, Barnyardgrass: Flood (flooded paddy test), 13 to 15 days
Method in brief: as §2

[12] = Postemergence, 125 g ai/ha, visual injury, 0 to 100 scale (0 no effect, 100 complete control), approx. ten days
[13] = Postemergence, 500 g ai/ha, 0 to 100 scale, 0 = no effect, 100 = complete control, approx. ten days
[14] = Preemergence, 125 g ai/ha, 0 to 100 scale, 0 = no effect, 100 = complete control
[15] = Preemergence, 500 g ai/ha, visual injury, 0 to 100 scale (0 no effect, 100 complete control), approx. ten days
[16] = 250 g ai/ha, flooded paddy test, visual rating on 0 to 100 scale (0 no effect, 100 complete control) after 13 to 15 days
[17] = 31 g ai/ha, scale of 0 to 100 where 0 is no effect and 100 is complete control
[18] = 62 g ai/ha, scale of 0 to 100 where 0 is no effect and 100 is complete control
[19] = 125 g ai/ha, scale 0 to 100, 0 is no effect, 100 is complete control

Question: Which “Corn plant response rating” value (corn (Zea mays); [12]) does the source give for `O=C1CCCC(O)=C1C(=O)c1cnc(-c2ccccc2)n(CC2CCCO2)c1=O` (stereo not drawn) [Compound 59] here?
Answer: 10

Question: And the “Plant response rating, Corn” value (corn (Zea mays); [13])?
Answer: 30

Question: What about the “Plant response rating, Corn” value (corn (Zea mays); [14]) of the same molecule?
Answer: 0

Question: And the “Plant response rating, Corn” value (corn (Zea mays); [15])?
Answer: 0

Question: What about the “Crabgrass, Large plant response rating” value [1, 12] of the same molecule?
Answer: 90

Question: And the “Plant response rating, Crabgrass, Large” value [1, 13]?
Answer: 100

Question: What about the “Plant response rating, Crabgrass, Large” value [1, 14] of the same molecule?
Answer: 90

Question: What about the “Plant response rating, Crabgrass, Large” value [1, 15] of the same molecule?
Answer: 100

Question: And the “Morningglory plant response rating” value ([2]; Postemergence, 125 g ai/ha, visual injury, 0 to 100 scale (0 no effect, 100 complete control))?
Answer: 100

Question: And the “Plant response rating, Morningglory” value ([2]; Postemergence, 0 to 100 scale, 0 = no effect, 100 = complete control)?
Answer: 100

Question: What about the “Plant response rating, Morningglory” value ([2]; Preemergence, visual injury, 0 to 100 scale (0 no effect, 100 complete control)) of the same molecule?
Answer: 90

Question: What about the “Pigweed plant response rating” value [3, 12] of the same molecule?
Answer: 100

Question: And the “Plant response rating, Pigweed” value [3, 13]?
Answer: 100

Question: What about the “Plant response rating, Pigweed” value [3, 14] of the same molecule?
Answer: 90

Question: And the “Plant response rating, Pigweed” value [3, 15]?
Answer: 100

Question: What about the “Foxtail, Giant plant response rating” value [4, 12] of the same molecule?
Answer: 80

Question: And the “Plant response rating, Foxtail, Giant” value [4, 13]?
Answer: 90

Question: And the “Plant response rating, Foxtail, Giant” value [4, 14]?
Answer: 50

Question: What about the “Plant response rating, Foxtail, Giant” value [4, 15] of the same molecule?
Answer: 80

Question: And the “Wheat plant response rating” value [5, 12]?
Answer: 0

Question: What about the “Plant response rating, Wheat” value [5, 13] of the same molecule?
Answer: 10

Question: And the “Plant response rating, Wheat” value [5, 14]?
Answer: 0

Question: What about the “Plant response rating, Wheat” value [5, 15] of the same molecule?
Answer: 0

Question: And the “Velvetleaf plant response rating” value [6, 12]?
Answer: 100

Question: What about the “Plant response rating, Velvetleaf” value [6, 13] of the same molecule?
Answer: 100

Question: And the “Plant response rating, Velvetleaf” value [6, 14]?
Answer: 100

Question: And the “Plant response rating, Velvetleaf” value [6, 15]?
Answer: 100

Question: And the “Barnyardgrass plant response rating” value [7, 12]?
Answer: 90

Question: What about the “Plant response rating, Barnyardgrass” value [7, 13] of the same molecule?
Answer: 90

Question: What about the “Plant response rating, Barnyardgrass” value [7, 14] of the same molecule?
Answer: 40

Question: What about the “Plant response rating, Barnyardgrass” value [7, 15] of the same molecule?
Answer: 90

Question: What about the “Plant response rating, Barley” value ([8]; 31 g ai/ha, postemergence, scale 0 to 100, 0 is no effect, 100 is complete control) of the same molecule?
Answer: 0

Question: And the “Plant response rating, Barley” value ([8]; Postemergence, 62 g ai/ha, scale 0 (no effect) to 100 (complete control), 13 to 15 days)?
Answer: 0

Question: And the “Plant response rating, Barley” value ([8]; Postemergence, 125 g ai/ha, visual rating after 13 to 15 days, scale 0 (no effect) to 100 (complete control))?
Answer: 10

Question: And the “Plant response rating, Barley” value ([8]; Postemergence, 250 g ai/ha, scale 0 to 100 (0 no effect, 100 complete control))?
Answer: 10

Question: And the “Plant response rating, Flood, Ducksalad” value [9, 16]?
Answer: 40

Question: And the “Plant response rating, Ducksalad” value [9, 17]?
Answer: 0

Question: And the “Plant response rating, Ducksalad” value [9, 18]?
Answer: 0

Question: What about the “Plant response rating, Ducksalad” value [9, 19] of the same molecule?
Answer: 0

Question: What about the “Plant response rating, Flood, Sedge, Umbrella” value [10, 16] of the same molecule?
Answer: 75

Question: What about the “Plant response rating, Sedge, Umbrella” value [10, 17] of the same molecule?
Answer: 30

Question: What about the “Plant response rating, Sedge, Umbrella” value [10, 18] of the same molecule?
Answer: 40

Question: What about the “Plant response rating, Sedge, Umbrella” value [10, 19] of the same molecule?
Answer: 50

Question: What about the “Plant response rating, Flood, Rice” value (rice (Oryza sativa); [16]) of the same molecule?
Answer: 15

Question: What about the “Plant response rating, Rice” value (rice (Oryza sativa); [17]) of the same molecule?
Answer: 0

Question: And the “Plant response rating, Rice” value (rice (Oryza sativa); [18])?
Answer: 15

Question: What about the “Plant response rating, Rice” value (rice (Oryza sativa); [19]) of the same molecule?
Answer: 15

Question: And the “Plant response rating, Flood, Barnyardgrass” value [11, 16]?
Answer: 45

Question: And the “Plant response rating, Barnyardgrass” value [11, 17]?
Answer: 0

Question: And the “Plant response rating, Barnyardgrass” value [11, 18]?
Answer: 0

Question: And the “Plant response rating, Barnyardgrass” value [11, 19]?
Answer: 20
